Measured values: patent US11672788B2, “Histone deacetylase inhibitors for immunomodulation in tumor microenvironment” (GREAT NOVEL THERAPEUTICS BIOTECH & MEDICALS CORPORATION, priority 2020, dated 2023)
“Also recorded” adds a separate entry of the source.

How the values were obtained:
[1] = target: HDAC11 (Homo sapiens (Human), UniProt Q96DB2); assay: HDACs 1-11 enzymatic inhibition by BPS Bioscience
Protocol: HDAC assay was performed according to standard Protocols (Fluorgenic HDACs 1-11 assay kit, BPS Bioscience™). […] After 0.5 h, assay developer was added to the samples and the absorbance was read at fluorogenic wavelength. The relative inhibition to HDACs 1, 2, 3, 4, 5, 6, 7, 8, 9, and 11 activities was determined in each sample. […] All of the compounds were dissolved in DMSO. The serial dilution of the compounds was first performed in 100% DMSO with the highest concentration at 1 mM. Each intermediate compound dilution (in 100% DMSO) would then get directly diluted 10× fold into assay buffer for an intermediate dilution of 10% DMSO in HDAC assay buffer and 5 μl of the dilution was added to a 50 μl reaction so that the final concentration of DMSO is 1% in all of the reactions. The enzymatic reactions for the HDAC enzymes were conducted in duplicate at 37° C. for 30 minutes in a 50 μl mixture containing HDAC assay buffer, 5 μg BSA, an HDAC substrate, a HDAC enzyme and a test compound. After enzymatic reactions, 50 μl of 2×HDAC Developer was added to each well for the HDAC enzymes and the plate was incubated at room temperature for an additional 15 minutes. Fluorescence intensity was measured at an excitation of 360 nm and an emission of 460 nm using a Tecan Infinite M1000 microplate reader. HDAC activity assays were performed in duplicate at each concentration. The fluorescent intensity data were analyzed using the computer software, Graphpad Prism. In the absence of the compound, the fluorescent intensity (Ft) in each data set was defined as 100% activity. In the absence of HDAC, the fluorescent intensity (Fb) in each data set was defined as 0% activity. The percent activity in the presence of each compound was calculated according to the following equation: % activity=(F−Fb)/(Ft−Fb), where F=the fluorescent intensity in the presence of the compound. The values of % activity versus a series of compound concentrations were then plotted using non-linear regression analysis of Sigmoidal dose-response curve generated with the equation Y=B+(T−B)/1+10((Log EC50−X)×Hill Slope), where Y=percent activity, B=minimum percent activity, T=maximum percent activity, X=logarithm of compound and Hill Slope=slope factor or Hill coefficient. The IC50 value was determined by the concentration causing a half-maximal percent activity.

[2] = target: T1, HDAC2 (Homo sapiens (Human), UniProt Q92769); assay: HDACs 1-11 enzymatic inhibition by BPS Bioscience
Protocol: (§6) HDAC assay was performed according to standard Protocols (Fluorgenic HDACs 1-11 assay kit, BPS Bioscience™). […] After 0.5 h, assay developer was added to the samples and the absorbance was read at fluorogenic wavelength. The relative inhibition to HDACs 1, 2, 3, 4, 5, 6, 7, 8, 9, and 11 activities was determined in each sample. […] All of the compounds were dissolved in DMSO. The serial dilution of the compounds was first performed in 100% DMSO with the highest concentration at 1 mM. Each intermediate compound dilution (in 100% DMSO) would then get directly diluted 10× fold into assay buffer for an intermediate dilution of 10% DMSO in HDAC assay buffer and 5 μl of the dilution was added to a 50 μl reaction so that the final concentration of DMSO is 1% in all of the reactions. […] Fluorescence intensity was measured at an excitation of 360 nm and an emission of 460 nm using a Tecan Infinite M1000 microplate reader. […] The fluorescent intensity data were analyzed using the computer software, Graphpad Prism. […] The percent activity in the presence of each compound was calculated according to the following equation: % activity=(F−Fb)/(Ft−Fb), where F=the fluorescent intensity in the presence of the compound. […] The IC50 value was determined by the concentration causing a half-maximal percent activity.

[3] = target: T1, HDAC2; assay: HDACs 1, 2, and 3 enzymatic inhibition (fluorogenic kit, 1 h); type: biochemical; conditions: 37° C.
Protocol: (§1) HDACs assay was performed according to standard Protocols (Fluorgenic HDACs 1, 2, and 3 assay kit, BPS Bioscience™). […] After 1 h, assay developer was added to the samples and the absorbance was read at fluorogenic wavelength. The relative inhibition to HDACs 1, 2, and 3 activities in each sample was determined.

[4] = target: HDAC3 (Homo sapiens (Human), UniProt O15379); assay: as above; type: biochemical; conditions: 37° C.
Protocol: as §1

[5] = target: HDAC1 (Homo sapiens (Human), UniProt Q13547); assay: as above; type: biochemical; conditions: 37° C.
Protocol: as §1

[6] = target: HDAC7 (Homo sapiens (Human), UniProt Q8WUI4); assay: HDACs 1-11 enzymatic inhibition by BPS Bioscience
Protocol: (§7) HDAC assay was performed according to standard Protocols (Fluorgenic HDACs 1-11 assay kit, BPS Bioscience™). […] After 0.5 h, assay developer was added to the samples and the absorbance was read at fluorogenic wavelength. The relative inhibition to HDACs 1, 2, 3, 4, 5, 6, 7, 8, 9, and 11 activities was determined in each sample. […] All of the compounds were dissolved in DMSO. The serial dilution of the compounds was first performed in 100% DMSO with the highest concentration at 1 mM. Each intermediate compound dilution (in 100% DMSO) would then get directly diluted 10× fold into assay buffer for an intermediate dilution of 10% DMSO in HDAC assay buffer and 5 μl of the dilution was added to a 50 μl reaction so that the final concentration of DMSO is 1% in all of the reactions. The enzymatic reactions for the HDAC enzymes were conducted in duplicate at 37° C. for 30 minutes in a 50 μl mixture containing HDAC assay buffer, 5 μg BSA, an HDAC substrate, a HDAC enzyme and a test compound. After enzymatic reactions, 50 μl of 2×HDAC Developer was added to each well for the HDAC enzymes and the plate was incubated at room temperature for an additional 15 minutes. Fluorescence intensity was measured at an excitation of 360 nm and an emission of 460 nm using a Tecan Infinite M1000 microplate reader. HDAC activity assays were performed in duplicate at each concentration. The fluorescent intensity data were analyzed using the computer software, Graphpad Prism. In the absence of the compound, the fluorescent intensity (Ft) in each data set was defined as 100% activity. In the absence of HDAC, the fluorescent intensity (Fb) in each data set was defined as 0% activity. The percent activity in the presence of each compound was calculated according to the following equation: % activity=(F−Fb)/(Ft−Fb), where F=the fluorescent intensity in the presence of the compound. […] The IC50 value was determined by the concentration causing a half-maximal percent activity.

[7] = target: HDAC3/NCOR2 (Homo sapiens (Human), UniProt O15379); assay: HDACs 1-11 enzymatic inhibition by BPS Bioscience
Protocol: as §6

[8] = tested on: SW48 cells; assay: Cell proliferation and morphology by phase-contrast light microscopy; type: cell-based, human; conditions: SW48, 3.125 μM, 72 h
Source text: (§2) (FIG. 3A) MDA-MB-231 cells, (FIG. 3B) SW48 cells, (FIG. 3C) M10 cells.

[9] = tested on: MDA-MB-231 cells; assay: as above; type: cell-based, human; conditions: MDA-MB-231, 12.5 μM, 72 h
Source text: as §2

[10] = tested on: M10 cells; assay: as above; type: cell-based, human; conditions: M10, 12.5 μM
Source text: as §2

[11] = target: HDAC6 (Homo sapiens (Human), UniProt Q9UBN7); assay: HDACs 1-11 enzymatic inhibition by BPS Bioscience
Protocol: as §7

[12] = target: HDAC9 (Homo sapiens (Human), UniProt Q9UKV0); assay: HDACs 1-11 enzymatic inhibition by BPS Bioscience
Protocol: as §7

[13] = tested on: SW48 cells; assay: Cell apoptosis (sub-G1) by PI flow cytometry; type: cell-based, human; conditions: SW48, 6.25 μM, 72 h
Protocol: (§3) A PI/RNase staining assay (BD Bioscience™) was performed to reveal the presence of cell cycle arrest and apoptotic cells after treatment with GNTbm compounds, Chidamide and Entinostat. […] After treatment cells were harvested, fixed with 80% ethanol for 24 h, washed with 1×PBS and stained with PI/RNase for 15 min at room temperature. The cells were then analyzed using Flow Cytometer within 1 h.

[14] = tested on: MDA-MB-231 cells; assay: Cell apoptosis (sub-G1) by PI flow cytometry; type: cell-based, human; conditions: MDA-MB-231, 6.25 μM, 72 h
Protocol: as §3

[15] = tested on: M10 cells; assay: Cell apoptosis (sub-G1) by PI flow cytometry; type: cell-based, human; conditions: M10, 12.5 μM, 72 h
Protocol: as §3

[16] = tested on: M10; assay: In vitro cytotoxicity MTT assay; type: cell-based, human; conditions: Homo sapiens, M10, 72 h, IC50 ± SD
In short: (§4)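 MTT read-out of cell viability at 72 h. Breast line MDA-MB-231 was plated at 6×10^3 per well, while MDA-MB-453, gastric NCI-N87 and colorectal SW48 were plated at 2.4×10^4.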

[17] = tested on: MDA-MB-231; assay: In vitro cytotoxicity MTT assay; type: cell-based, human; conditions: Homo sapiens, MDA-MB-231, 72 h, IC50 ± SD
In short: as §4

[18] = tested on: MDA-MB-453; assay: In vitro cytotoxicity MTT assay; type: cell-based, human; conditions: Homo sapiens, MDA-MB-453, 72 h, IC50 ± SD
In short: as §4

[19] = tested on: SW48; assay: In vitro cytotoxicity MTT assay; type: cell-based, human; conditions: Homo sapiens, SW48, 72 h, IC50 ± SD
In short: as §4

[20] = tested on: histone H3 acetylation (AcH3) in MDA-MB-231 cells; assay: Western blot of histone H3 acetylation; type: cell-based, human; conditions: MDA-MB-231, 1.0 μM
In short: (§5)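 MDA-MB-231 and SW48 cells in L-15 with 10% FCS were treated at indicated doses for 24 h or over a time course. RIPA lysates were immunoblotted for acetylated histone H3 with β-actin as loading control, using ECL detection.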

[21] = tested on: histone H3 acetylation (AcH3) in SW48 cells; assay: Western blot of histone H3 acetylation; type: cell-based, human; conditions: SW48, 1.0 μM, 2-72 h
In short: as §5

[22] = target: HDAC5 (Homo sapiens (Human), UniProt Q9UQL6); assay: HDACs 1-11 enzymatic inhibition by BPS Bioscience
HDAC5, sequence (Q9UQL6 whole entry): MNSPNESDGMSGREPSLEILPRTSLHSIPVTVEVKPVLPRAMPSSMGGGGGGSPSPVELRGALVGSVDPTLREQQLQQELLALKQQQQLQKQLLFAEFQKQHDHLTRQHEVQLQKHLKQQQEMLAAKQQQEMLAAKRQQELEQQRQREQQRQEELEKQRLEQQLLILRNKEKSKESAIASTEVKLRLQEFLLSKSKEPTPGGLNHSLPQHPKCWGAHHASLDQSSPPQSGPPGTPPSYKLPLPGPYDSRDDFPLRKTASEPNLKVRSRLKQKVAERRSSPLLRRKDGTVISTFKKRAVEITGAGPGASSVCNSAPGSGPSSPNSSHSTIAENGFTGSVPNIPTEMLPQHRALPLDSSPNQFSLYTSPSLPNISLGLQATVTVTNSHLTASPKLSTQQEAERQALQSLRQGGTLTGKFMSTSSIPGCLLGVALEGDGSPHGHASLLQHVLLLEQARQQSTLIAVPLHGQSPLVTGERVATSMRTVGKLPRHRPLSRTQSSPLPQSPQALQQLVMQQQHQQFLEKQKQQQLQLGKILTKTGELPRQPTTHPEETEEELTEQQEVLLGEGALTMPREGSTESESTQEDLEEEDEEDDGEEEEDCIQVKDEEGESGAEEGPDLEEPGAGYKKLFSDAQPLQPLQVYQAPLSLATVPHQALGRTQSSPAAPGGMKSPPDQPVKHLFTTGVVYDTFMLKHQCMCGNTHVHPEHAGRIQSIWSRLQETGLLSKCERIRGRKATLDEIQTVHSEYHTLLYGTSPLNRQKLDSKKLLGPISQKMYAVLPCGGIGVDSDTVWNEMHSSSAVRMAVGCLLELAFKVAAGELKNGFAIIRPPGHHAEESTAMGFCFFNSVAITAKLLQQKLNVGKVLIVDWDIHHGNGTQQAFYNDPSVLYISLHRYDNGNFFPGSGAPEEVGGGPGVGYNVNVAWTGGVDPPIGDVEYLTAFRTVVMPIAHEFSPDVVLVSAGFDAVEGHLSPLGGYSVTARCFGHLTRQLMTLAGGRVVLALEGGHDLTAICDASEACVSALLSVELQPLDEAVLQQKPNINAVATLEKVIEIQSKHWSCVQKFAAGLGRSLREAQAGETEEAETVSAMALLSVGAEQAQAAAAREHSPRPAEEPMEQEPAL
Protocol: as §7

HDAC9, sequence (Q9UKV0 whole entry): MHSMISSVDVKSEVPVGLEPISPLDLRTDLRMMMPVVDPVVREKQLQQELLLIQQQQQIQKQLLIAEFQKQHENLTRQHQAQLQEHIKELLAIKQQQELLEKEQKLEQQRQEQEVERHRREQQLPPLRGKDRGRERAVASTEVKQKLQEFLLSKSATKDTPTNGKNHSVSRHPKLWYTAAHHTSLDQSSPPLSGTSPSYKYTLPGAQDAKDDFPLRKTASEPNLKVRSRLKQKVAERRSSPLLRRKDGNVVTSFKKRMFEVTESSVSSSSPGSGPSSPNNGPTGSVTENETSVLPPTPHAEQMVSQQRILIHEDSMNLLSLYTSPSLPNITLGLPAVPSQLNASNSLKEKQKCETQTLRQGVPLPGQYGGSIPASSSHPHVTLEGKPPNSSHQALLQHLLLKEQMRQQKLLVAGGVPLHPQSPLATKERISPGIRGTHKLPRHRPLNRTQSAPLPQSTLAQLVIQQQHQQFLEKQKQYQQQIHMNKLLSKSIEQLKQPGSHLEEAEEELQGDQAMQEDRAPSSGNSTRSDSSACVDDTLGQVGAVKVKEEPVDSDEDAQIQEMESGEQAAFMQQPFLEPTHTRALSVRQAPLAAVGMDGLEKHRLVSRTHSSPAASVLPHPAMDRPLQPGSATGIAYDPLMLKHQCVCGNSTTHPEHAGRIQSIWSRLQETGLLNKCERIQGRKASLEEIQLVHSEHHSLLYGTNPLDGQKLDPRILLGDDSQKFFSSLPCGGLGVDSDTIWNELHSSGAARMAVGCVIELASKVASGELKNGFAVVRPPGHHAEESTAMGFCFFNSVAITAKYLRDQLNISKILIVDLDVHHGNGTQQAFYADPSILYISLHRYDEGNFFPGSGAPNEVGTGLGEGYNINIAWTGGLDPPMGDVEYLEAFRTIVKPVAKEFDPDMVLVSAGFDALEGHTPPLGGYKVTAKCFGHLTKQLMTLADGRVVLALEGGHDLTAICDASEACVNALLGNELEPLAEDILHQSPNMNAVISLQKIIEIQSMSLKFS
HDAC6, sequence (Q9UBN7 whole entry): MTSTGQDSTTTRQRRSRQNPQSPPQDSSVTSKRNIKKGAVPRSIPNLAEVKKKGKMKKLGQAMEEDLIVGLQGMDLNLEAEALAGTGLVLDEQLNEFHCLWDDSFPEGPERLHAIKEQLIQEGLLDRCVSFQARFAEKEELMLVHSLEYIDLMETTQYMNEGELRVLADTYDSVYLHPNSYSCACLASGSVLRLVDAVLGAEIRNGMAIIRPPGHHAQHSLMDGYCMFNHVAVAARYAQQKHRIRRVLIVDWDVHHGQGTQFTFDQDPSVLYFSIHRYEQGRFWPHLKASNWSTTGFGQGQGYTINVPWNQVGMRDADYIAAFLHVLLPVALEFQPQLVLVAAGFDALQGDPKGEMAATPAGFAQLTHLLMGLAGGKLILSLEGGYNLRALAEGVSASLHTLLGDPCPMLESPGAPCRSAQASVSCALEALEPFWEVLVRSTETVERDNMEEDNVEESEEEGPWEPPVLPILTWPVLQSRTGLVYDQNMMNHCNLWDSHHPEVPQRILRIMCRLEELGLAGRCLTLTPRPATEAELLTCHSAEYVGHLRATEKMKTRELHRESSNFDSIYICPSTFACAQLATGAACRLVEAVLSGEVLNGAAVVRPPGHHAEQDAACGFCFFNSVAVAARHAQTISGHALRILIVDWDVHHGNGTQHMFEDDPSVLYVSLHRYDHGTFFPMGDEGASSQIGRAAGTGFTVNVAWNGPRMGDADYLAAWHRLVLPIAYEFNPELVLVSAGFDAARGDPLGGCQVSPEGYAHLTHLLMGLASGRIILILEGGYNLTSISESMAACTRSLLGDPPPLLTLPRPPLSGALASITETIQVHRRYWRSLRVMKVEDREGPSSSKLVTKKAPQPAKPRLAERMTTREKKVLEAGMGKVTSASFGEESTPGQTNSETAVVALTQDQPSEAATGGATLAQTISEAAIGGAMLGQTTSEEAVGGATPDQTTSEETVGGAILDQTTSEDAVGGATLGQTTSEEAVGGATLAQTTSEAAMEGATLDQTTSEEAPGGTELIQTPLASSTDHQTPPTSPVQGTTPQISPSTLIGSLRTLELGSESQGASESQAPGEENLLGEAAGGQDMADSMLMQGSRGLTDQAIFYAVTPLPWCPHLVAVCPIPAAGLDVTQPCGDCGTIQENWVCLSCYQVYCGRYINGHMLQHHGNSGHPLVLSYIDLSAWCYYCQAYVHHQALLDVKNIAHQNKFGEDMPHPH
HDAC11, sequence (Q96DB2 whole entry): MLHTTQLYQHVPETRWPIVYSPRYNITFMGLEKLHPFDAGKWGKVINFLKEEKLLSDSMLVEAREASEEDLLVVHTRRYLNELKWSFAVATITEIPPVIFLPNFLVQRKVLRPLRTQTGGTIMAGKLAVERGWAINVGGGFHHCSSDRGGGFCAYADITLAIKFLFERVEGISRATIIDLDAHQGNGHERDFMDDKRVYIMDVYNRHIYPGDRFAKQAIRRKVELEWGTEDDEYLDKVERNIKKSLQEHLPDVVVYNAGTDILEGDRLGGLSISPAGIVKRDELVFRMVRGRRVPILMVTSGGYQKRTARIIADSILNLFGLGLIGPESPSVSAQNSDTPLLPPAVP
HDAC7, sequence (Q8WUI4 whole entry): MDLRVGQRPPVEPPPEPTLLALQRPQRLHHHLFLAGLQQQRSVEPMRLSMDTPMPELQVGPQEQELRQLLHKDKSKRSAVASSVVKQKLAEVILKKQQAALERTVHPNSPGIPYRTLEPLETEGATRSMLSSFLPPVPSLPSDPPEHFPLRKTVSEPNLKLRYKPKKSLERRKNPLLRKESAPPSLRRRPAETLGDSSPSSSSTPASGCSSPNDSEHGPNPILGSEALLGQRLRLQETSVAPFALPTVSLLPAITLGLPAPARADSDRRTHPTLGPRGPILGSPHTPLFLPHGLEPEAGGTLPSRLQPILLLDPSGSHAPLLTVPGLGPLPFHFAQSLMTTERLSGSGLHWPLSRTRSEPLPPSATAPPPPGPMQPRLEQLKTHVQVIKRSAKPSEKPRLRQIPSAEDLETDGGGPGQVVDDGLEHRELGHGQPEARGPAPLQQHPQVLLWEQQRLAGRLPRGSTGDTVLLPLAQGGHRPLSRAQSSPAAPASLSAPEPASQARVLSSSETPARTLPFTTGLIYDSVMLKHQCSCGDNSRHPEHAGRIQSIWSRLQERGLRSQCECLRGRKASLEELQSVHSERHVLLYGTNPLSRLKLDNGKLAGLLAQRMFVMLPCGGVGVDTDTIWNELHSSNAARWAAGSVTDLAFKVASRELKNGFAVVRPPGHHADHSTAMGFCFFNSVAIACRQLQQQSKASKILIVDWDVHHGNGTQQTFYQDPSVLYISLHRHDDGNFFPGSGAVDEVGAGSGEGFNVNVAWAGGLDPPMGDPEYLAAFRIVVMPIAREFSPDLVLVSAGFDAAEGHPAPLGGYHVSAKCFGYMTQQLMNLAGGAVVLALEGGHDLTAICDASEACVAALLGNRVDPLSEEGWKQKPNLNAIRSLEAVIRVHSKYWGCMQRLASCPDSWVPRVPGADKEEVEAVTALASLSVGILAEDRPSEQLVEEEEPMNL

Cc1ccc(/C=C/CC(=O)Nc2ccc(C(=O)Nc3ccc(F)cc3N)nc2)cn1 [GNTbm-02, 5-((E)-4-(6-methylpyridin-3-yl)but-3-enamido)-N-(2-amino-4-fluorophenyl)pyridine-2-carboxamide]
IC50 [1]: > 10 µM
HDAC11 Inhibition at 10 μM ([1]; 10 μM): not inhibited; also recorded: No Inhibition at 10 μM
IC50 [2]: 0.91 µM
IC50 [3]: 0.55 ± 0.06 µM
IC50 [4]: 0.67 ± 0.005 µM
IC50 [5]: 0.52 ± 0.02 µM
IC50 [6]: > 10 µM
HDAC7 Inhibition at 10 μM ([6]; 10 μM): not inhibited; also recorded: No Inhibition at 10 μM
IC50 [7]: 0.73 µM
Inhibition of cell proliferation [8]: inhibitory effect was more obvious for SW48 cells
Inhibition of cell proliferation [9]: significantly inhibiting cell proliferation
Inhibition of cell proliferation [10]: significantly inhibited cell proliferation
IC50 [11]: > 10 µM
HDAC6 Inhibition at 10 μM ([11]; 10 μM): not inhibited; also recorded: No Inhibition at 10 μM
IC50 [12]: > 10 µM
HDAC9 Inhibition at 10 μM ([12]; 10 μM): not inhibited; also recorded: No Inhibition at 10 μM
Induction of apoptosis (sub-G1 phase) [13]: significantly induced apoptosis
Induction of apoptosis (sub-G1 phase) [14]: significantly induced apoptosis
Induction of apoptosis (sub-G1 phase) [15]: significantly induced apoptosis in M10 cells
IC50 [16]: 4.31 ± 0.16 µM
IC50 [17]: 13.5 ± 1.78 µM
IC50 [18]: 1.69 ± 0.008 µM
IC50 [19]: 2.51 ± 0.11 µM
Histone H3 acetylation, time course ([20]; 2-72 h): potently induced histone H3 acetylation in MDA-MB-231 cell after 6 h treatment
Level of histone H3 acetylation ([20]; 24 h): significantly increased the level of histone H3 acetylation
Histone H3 acetylation, time course [21]: potently induced histone H3 acetylation level in SW48 cells after 6 h treatment
IC50 [22]: > 10 µM
HDAC5 Inhibition at 10 μM ([22]; 10 μM): not inhibited; also recorded: No Inhibition at 10 μM
